# US20260355318A1, “MOLECULAR MACHINES FOR TREATMENT OF CANCER, FUNGAL INFECTIONS, OR BACTERIAL INFECTIONS” (priority 2022, published 2026)
# Assays:
# C. albicans [1] = assay: Influence of BAPTA-AM on MM-induced killing and intracellular calcium; assay type: cell-based, Candida albicans; settings: MM 1 2×MIC
# Method: C. albicans cells were grown as described above and resuspended in HHBS (~10^6 CFU mL^−1). The cation chelator 1,2-bis(2-aminophenoxy) ethane-N,N,N′,N′-tetraacetic acid acetoxymethyl ester (BAPTA-AM) was then added (0.25-1 mM, final concentration) (Li et al., 2020). Unamended cells were used as controls. After a 30-min dark incubation at 30 ° C, the cells were centrifuged (5,000×g, 5 min), washed, and resuspended in HHBS. […] After 30 min, the cells were irradiated and processed as described for the time-kill experiments.
# A. fumigatus [2] = assay: MIC, MMs and antifungals, A. fumigatus; assay type: cell-based, Aspergillus fumigatus (ATCC 1022); settings: A. fumigatus, broth microdilution
# Method: (§1) Cell suspensions for susceptibility testing (MMs and conventional antifungals) were prepared per the Clinical & Laboratory Standards Institute (CLSI) guidelines (CLSI, 2017; CLSI, 2008). Before testing, yeasts (C. albicans and S. cerevisiae) were sub-cultured in Sabouraud Dextrose Agar-Emmons Modification (SDAE) plates and grown for 24 h at 30 °C. Five independent colonies from 24-h-old plates were collected and diluted to ~10^4 colony forming units (CFU) per mL in sterile saline (CLSI, 2017). Molds (A. fumigatus and the dermatophytes T. rubrum and M. gypseum) were sub-cultured on SDAE medium and incubated for 7 days at 28 °C. Conidia were recovered by covering the plates with sterile distilled water and scraping the colonies. The suspensions were filtered (8-μm pore size) and diluted in saline to ~10^4 CFU mL^−1 (Santos and Hamdan, 2005).
# After a 30-min incubation in the dark, cell suspensions were transferred to small, sterilized glass beakers, which were then placed in a water bath. Each sample was irradiated with 405-nm light at 292 mW cm^−2 for 5 min, corresponding to a light dose of 87.6 J cm^−2, determined using an S415C thermal power sensor (Thorlabs, Newton, MA, USA). During irradiation, the cell suspensions were agitated with a small metal stirrer. […]
# [3] = test system: C. albicans plasma membrane; assay: Plasma membrane fluidity, DPH fluorescence; assay type: cell-based, Candida albicans
# Method: The effects of MMs on C. albicans membrane dynamics were evaluated using DPH fluorescence (Kim et al., 2009). […] AMB-treated cells were used as controls. Samples were fixed with 0.37% formaldehyde and labeled with 0.6 mM DPH, as previously described (Kim et al., 2009). […] DPH fluorescence of untreated samples minus background was defined as 100% and used to calculate changes in treated samples.
# [4] = test system: mature C. albicans biofilms; assay: Biofilm biomass (crystal violet); assay type: cell-based, Candida albicans; settings: 2×, 4×MIC, vs DMSO, MMs with 87.6 J cm^−2 405-nm light
# Method: (§2) The antibiofilm activity of MMs was investigated using 96-well microtiter plates with flat-bottom wells as a closed static biofilm reactor. This setup is reliable, inexpensive, easy to use and obtain, and requires no additional equipment (Pierce et al., 2010). Two parameters were used to evaluate antibiofilm activity: biofilm biomass and biofilm viability. Biofilm biomass was determined using the crystal violet method (Martins et al, 2010), a simple, inexpensive, and readily accessible method for determining biofilm biomass. However, because crystal violet binds both live and dead cells as well as extracellular polymeric substances, it cannot be used alone to reliably assess antibiofilm activity. To overcome this limitation, the XTT assay was used to evaluate biofilm viability (Nett et al., 2011). This assay is based on the reduction of the tetrazolium salt XTT to formazan by dehydrogenases in the mitochondrial electron transport chain of living cells. The resulting formazan can be easily detected by measuring the absorbance at 490 nm, which is proportional to the number of living cells, providing a reliable quantitative measurement of metabolically active cells in biofilms (Taff et al., 2012). […]
# Biofilm biomass was determined by the crystal violet method, as previously described (Martins et al., 2010). […]
# C. albicans [5] = assay: MIC, visible-light-activated MMs and conventional antifungals, C. albicans; assay type: cell-based, Candida albicans (ATCC 18804)
# Method: C. albicans cell suspensions were incubated with increasing concentrations of MMs and irradiated with 405-nm light at 292 mW cm^−2 for 5 min (87.6 J cm^−2). The minimum inhibitory concentration (MIC) was defined as the MM concentration resulting in no visible fungal growth after irradiation with 87.6 J cm^−2 of 405-nm light.
# as §1
# (§3) After a 30-min incubation in the dark, cell suspensions were transferred to small, sterilized glass beakers, which were then placed in a water bath. Each sample was irradiated with 405-nm light at 292 mW cm^−2 for 5 min, corresponding to a light dose of 87.6 J cm^−2, determined using an S415C thermal power sensor (Thorlabs, Newton, MA, USA). During irradiation, the cell suspensions were agitated with a small metal stirrer. A thermocouple probe (model SC-TT-K-30-36-PP; Omega Engineering, Inc., Stanford, CT, USA) was used to monitor the temperature during irradiation. Irradiated cell suspensions were inoculated in 3-(N-morpholino) propanesulfonic acid (MOPS)-buffered Roswell Park Memorial Institute Medium (RPMI) 1640 (pH 7.0). Tubes were incubated at 30 ° C for 48 h (yeasts) and 28 ° C for 7 days (molds). The antifungal or MM concentration resulting in no visible growth was defined as the minimum inhibitory concentration (MIC) (CLSI, 2017; CLSI, 2008). Similarly prepared cell suspensions were used to determine the MIC of conventional antifungals.
# S. cerevisiae [6] = assay: MIC, MMs and antifungals, S. cerevisiae; assay type: cell-based, Saccharomyces cerevisiae (ATCC 13007); settings: broth microdilution
# Method: as §1, §3
# C. albicans [7] = assay: Time-kill assay, C. albicans; assay type: cell-based, Candida albicans
# Method: (§4) For yeasts, five independent colonies were collected from 24-h SDAE plates, inoculated into yeast peptone with 2% dextrose (YPD), and grown for 24 h at 30 °C. Cells were then sub-cultured in fresh medium and grown for ~9 h. Afterward, the cells were centrifuged (5,000 ×g, 5 min), washed, and resuspended in phosphate-buffered saline (PBS) to ~10^6 CFU mL^−1. For A. fumigatus, conidia suspensions (~10^4 CFU mL^−1) were prepared in PBS as previously described.
# (§5) Amphotericin B (AMB, 4×MIC) controls were prepared likewise, but light was omitted. Aliquots were collected in 1-min increments for up to 10 min, serially diluted in PBS, and plated on SDAE medium. Plates were incubated at 30 ° C for 48 h with confirmation after 72 h (yeasts) or at 28 ° C for 7 days with confirmation after 14 days (A. fumigatus), after which the CFU number was determined. The results were expressed as the logarithm of base 10 of the ratio between the CFU at each time point and the CFU at time 0. The detection limit of the method was ~1 log10 CFU mL^−1.
# [8] = test system: mature C. albicans biofilms; assay: Biofilm viability (XTT assay); assay type: cell-based, Candida albicans; settings: 2×, 4×MIC, vs DMSO, MMs with 87.6 J cm^−2 405-nm light
# Method: as §2, with “This assay is based on the reduction of the tetrazolium salt XTT to formazan by dehydrogenases in the mitochondrial electron transport chain of living cells.” left out
# Biofilm viability was determined using an XTT cell viability assay kit (Biotium, Hayward, CA, USA) per the manufacturer's instructions. […] Normalized absorbance values were obtained by subtracting the background from the signal.
# A. fumigatus [9] = assay: Time-kill assay, A. fumigatus; assay type: cell-based, Aspergillus fumigatus; settings: 2×MIC, 405-nm light at 292 mW cm^−2
# Method: as §4, §5
# [10] = Estimated rotation rate after light activation; settings: based on known motors with similar core skeletons
# superoxide dismutase = assay: Superoxide dismutase (SOD) activity; assay type: cell-based, Candida albicans; settings: 0.5×MIC, p<0.05
# Method: (§6) Superoxide dismutase (SOD) activity was determined using a Superoxide Dismutase Assay Kit (Caymanchem, MI, USA) per the distributor's instructions. Lipid peroxidation was determined using a TBARS assay kit (TCA method) (Caymanchem, MI, USA) per the distributor's instructions. SOD activity and MDA levels were normalized by protein content determined by the Pierce assay (Pierce™ BCA Protein Assay Kit, Thermo Fisher Scientific, MA, USA).
# S. cerevisiae [11] = assay: Time-kill assay, S. cerevisiae; assay type: cell-based, Saccharomyces cerevisiae; settings: 2×MIC, 405-nm light at 292 mW cm^−2
# Method: as §4, §5
# C. albicans [12] = assay: Lipid peroxidation (TBARS, MDA); assay type: cell-based, Candida albicans; settings: 2×MIC
# Method: as §6
# C. albicans [13] = assay: Development of resistance / cross-resistance in C. albicans (serial passage, single-step); assay type: cell-based; settings: Candida albicans, read-out: MIC of MM in antifungal-resistant C. albicans
# Method: FIG. 3: Evaluation of the development of resistance to MMs in C. albicans. For the stepwise resistance assessment by serial passage (left), C. albicans cell suspensions were treated with increasing concentrations (0.3125-160 μM) of different MMs (8 mM stock in DMSO) and then irradiated with […] light (87.6 J cm^−2). The irradiated cell suspensions were then inoculated in MOPS-buffered RPMI 1640 (pH 7.0, Sigma, MO, USA), and the tubes were incubated at 30 ° C for 48 h. […] Cells able to grow at 0.5×MIC of each MM were collected by centrifugation (5,000×g, 5 min), resuspended and re-challenged with a range of MM concentrations and irradiated with 405 nm light (87.6 J cm^−2). The procedure was repeated for a total of 20 consecutive cycles. […] Irradiated cells were then inoculated in YPD and incubated at 30 °C. However, MM-resistant colonies could not be recovered even after 14 days of incubation. Created with Biorender.com.
# A modified version of the broth microdilution serial passage method was used to assess the development of resistance to visible-light-activated MMs in C. albicans (Kapoor et al., 2019). C. albicans cell suspensions were prepared and irradiated as previously described for the determination of MM MIC. Cells were then inoculated into buffered RPMI 1640 and incubated at 30 ° C for 48 h. Cells able to grow at 0.5×MIC of MM were centrifuged (5,000×g, 5 min), resuspended, rechallenged with different MM concentrations, and irradiated with 405-nm light (87.6 J cm^−2). The procedure was repeated for 20 consecutive cycles. The antifungals AMB, CAS, and FLC were processed similarly, except that light was omitted, and used as controls.
smiles,measurement,setting,value
"CC(=O)OCOC(=O)CN(CC(=O)OCOC(C)=O)c1ccccc1OCCOc1ccccc1N(CC(=O)OCOC(C)=O)CC(=O)OCOC(C)=O [BAPTA-AM, 1,2-bis(2-aminophenoxy) ethane-N,N,N′,N′-tetraacetic acid acetoxymethyl ester]",effect of calcium chelator on MM-induced cell death,C. albicans [1],Mitigation of MM-induced cell death
"C[C@@H]1[C@H](O)[C@@H](C)/C=C/C=C/C=C/C=C/C=C/C=C/C=C/[C@H](O[C@@H]2O[C@H](C)[C@@H](O)[C@H](N)[C@@H]2O)C[C@@H]2O[C@](O)(C[C@@H](O)C[C@@H](O)[C@H](O)CC[C@@H](O)C[C@@H](O)CC(=O)O[C@H]1C)C[C@H](O)[C@H]2C(=O)O [Amphotericin B (AMB), Amphotericin B]",MIC of antifungal agent,A. fumigatus [2],2 µg/mL
same,DPH fluorescence,[3],reduces DPH fluorescence
same,reduction of biofilm biomass,[4],6%
same,MIC of antifungal agent,"C. albicans [5]; C. albicans, broth microdilution",1 µg/mL
same,MIC of antifungal agent,S. cerevisiae [6],0.5 µg/mL
same,effect on fungal cell number,"C. albicans [7]; time-kill, FIG. 1D / FIG. 2, AMB at 4×MIC",non-significant reduction in cell numbers
same,reduction of biofilm viability,[8],20%
"C[C@@H]1Cc2ccc3ccccc3c2/C1=C1\c2ccccc2Sc2cc(NCCN3CCNCC3)ccc21 (mixture of isomers) [MM 7, 9-(2-methyl-2,3-dihydro-1H-cyclopenta[a]naphthalen-1-ylidene)-N-(2-(piperazin-1-yl)ethyl)-9H-thioxanthen-3-amine]",time to reduce cell numbers to limit of detection,A. fumigatus [9],9 min
same,MIC,"C. albicans [5]; Candida albicans, read-out: MIC of MM",≤ 5 µM
same,estimated rotation rate after light activation,[10],3 MHz
same,time to reduce cell numbers to limit of detection,"C. albicans [7]; C. albicans, 2×MIC, 405-nm light at 292 mW cm^−2",9 min
same,superoxide dismutase activity,superoxide dismutase,increased superoxide dismutase activity
same,time to population eradication,S. cerevisiae [11],5 min
same,lipid peroxidation product levels,C. albicans [12],increased levels of the lipid peroxidation product malonaldehyde
same,MIC,C. albicans [13],5 µM
